Measurements as given in US20100298141A1, “SUBSTITUTED PYRIDINE N-OXIDE HERBICIDES” (E. I. DU PONT DE NEMOURS AND COMPANY, priority 2007, published 2010).

Columns and labels:
[1] = system: velvetleaf; test: Test C pre-/postemergence test; assay type: in vivo, Abutilon theophrasti
Outline: (§1)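 Seeds were planted and treated preemergence with test chemical in a non-phytotoxic solvent mixture containing surfactant. Postemergence applications of the same formulation went onto plants 2 to 18 cm tall (1- to 4-leaf stage). A dash marks no test result.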

[2] = system: eastern black nightshade; test: Test C pre-/postemergence test; assay type: in vivo, Solanum ptycanthum
Outline: as §1

[3] = system: downy brome; test: Test C pre-/postemergence test; assay type: in vivo, Bromus tectorum
Outline: as §1

[4] = system: johnsongrass; test: Test C pre-/postemergence test; assay type: in vivo, Sorghum halepense
Outline: as §1

[5] = system: catchweed bedstraw; test: Test C pre-/postemergence test; assay type: in vivo, Galium aparine
Outline: as §1

[6] = system: wheat; test: Test C pre-/postemergence test; assay type: in vivo, Triticum aestivum
Outline: as §1

[7] = system: corn; test: Test C pre-/postemergence test; assay type: in vivo, Zea mays
Outline: as §1

[8] = system: redroot pigweed; test: Test A pre-/postemergence greenhouse test; assay type: in vivo, Amaranthus retroflexus; conditions: for Pigweed plant response rating: 0 to 100 scale
Outline: (§2)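 Greenhouse herbicide screen, pre- and postemergence in parallel. Soil: loam plus sand. Formulation: non-phytotoxic solvent mix with surfactant. Postemergence stage: one to two leaves, 2–10 cm height. Evaluation: visual injury, compared with untreated controls, about 10 days after treatment.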

[9] = system: giant foxtail; test: Test C pre-/postemergence test; assay type: in vivo, Setaria faberii
Outline: as §1

[10] = system: rice; test: Test C flooded paddy test; assay type: in vivo, Oryza sativa; conditions: Flood
Outline: (§3)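 In-water treatment: compound dosed into 3 cm flood over soil, water level unchanged throughout. Controls run alongside; visual assessment at day 13–15.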

[11] = system: yellow nutsedge; test: Test C pre-/postemergence test; assay type: in vivo, Cyperus esculentus
Outline: as §1

[12] = system: wheat; test: Test A pre-/postemergence greenhouse test; assay type: in vivo, Triticum aestivum; conditions: for Wheat plant response rating: 0 to 100 scale
Outline: as §2

[13] = system: morningglory; test: Test C pre-/postemergence test; assay type: in vivo, Ipomoea coccinea
Outline: as §1

[14] = system: woolly cupgrass; test: Test C pre-/postemergence test; assay type: in vivo, Eriochloa villosa
Outline: as §1

[15] = system: wild oat; test: Test C pre-/postemergence test; assay type: in vivo, Avena fatua
Outline: as §1

[16] = system: duck salad; test: Test C flooded paddy test; assay type: in vivo, Heteranthera limosa; conditions: Flood
Outline: as §3

[17] = system: velvetleaf; test: Test A pre-/postemergence greenhouse test; assay type: in vivo, Abutilon theophrasti; conditions: for Velvetleaf plant response rating: 0 to 100 scale
Outline: as §2

[18] = 62 g ai/ha, Preemergence, scale 0 to 100
[19] = 125 g ai/ha, preemergence, scale 0 (no effect) to 100 (complete control)
[20] = Preemergence, 31 g ai/ha, scale 0 to 100 (0 no effect, 100 complete control)
[21] = preemergence, 250 g ai/ha, scale 0 (no effect) to 100 (complete control)
[22] = Postemergence, 125 g ai/ha, 0 is no effect, 100 is complete control
[23] = Postemergence, 500 g ai/ha, 0 is no effect, 100 is complete control
[24] = Preemergence, 125 g ai/ha, 0 no effect, 100 complete control
[25] = Preemergence, 500 g ai/ha, 0 to 100 scale where 0 is no effect and 100 is complete control
[26] = 31 g ai/ha, scale 0 to 100 (0 no effect, 100 complete control)
[27] = 62 g ai/ha, scale 0 to 100, 0 no effect, 100 complete control, 13 to 15 days
[28] = 125 g ai/ha, scale 0 to 100, 0 no effect, 100 complete control, 13 to 15 days
[29] = 250 g ai/ha, scale 0 to 100, 0 no effect, 100 complete control, 13 to 15 days

`Cn1nc(C(F)(F)F)c(C[S+]([O-])c2cc(Br)cc[n+]2[O-])c1Cl` (racemic) [Compound 35] was tested, and the “Velvetleaf plant response rating” value [1, 18] was 100, the “Velvetleaf plant response rating” value [1, 19] was 100 and the “Plant response rating, Velvetleaf” value [1, 20] was 55. For the same compound, the “Velvetleaf plant response rating” value [1, 21] was 100, the “Nightshade plant response rating” value [2, 18] was 100 and the “Nightshade plant response rating” value [2, 19] was 100. The “Plant response rating, Nightshade” value [2, 20] was 0, the “Nightshade plant response rating” value [2, 21] was 100 and the “Bromegrass, Downy plant response rating” value [3, 18] was 0. The “Bromegrass, Downy plant response rating” value [3, 19] was 0, the “Plant response rating, Bromegrass, Downy” value [3, 20] was 0 and the “Bromegrass, Downy plant response rating” value [3, 21] was 30. The “Johnsongrass plant response rating” value [4, 18] was 90, the “Johnsongrass plant response rating” value [4, 19] was 100 and the “Plant response rating, Johnsongrass” value [4, 20] was 50. For the same compound, the “Johnsongrass plant response rating” value [4, 21] was 100, the “Galium plant response rating” value [5, 18] was 100 and the “Galium plant response rating” value [5, 19] was 100. For the same compound, the “Plant response rating, Galium” value [5, 20] was 0, the “Galium plant response rating” value [5, 21] was 100 and the “Wheat plant response rating” value [6, 18] was 25. For the same compound, the “Wheat plant response rating” value [6, 19] was 25, the “Plant response rating, Wheat” value [6, 20] was 0 and the “Wheat plant response rating” value [6, 21] was 25. For the same compound, the “Corn plant response rating” value [7, 18] was 10, the “Corn plant response rating” value [7, 19] was 30 and the “Plant response rating, Corn” value [7, 20] was 10. For the same compound, the “Corn plant response rating” value [7, 21] was 65, the “Pigweed plant response rating” value [8, 22] was 60 and the “Pigweed plant response rating” value [8, 23] was 80. For the same compound, the “Pigweed plant response rating” value [8, 24] was 100, the “Plant response rating, Pigweed” value [8, 25] was 100 and the “Foxtail, Giant plant response rating” value [9, 18] was 60. For the same compound, the “Foxtail, Giant plant response rating” value [9, 19] was 75, the “Plant response rating, Foxtail, Giant” value [9, 20] was 40 and the “Foxtail, Giant plant response rating” value [9, 21] was 98. For the same compound, the “Plant response rating, Rice” value [10, 26] was 0, the “Plant response rating, Rice” value [10, 27] was 0 and the “Plant response rating, Rice” value [10, 28] was 0. The “Plant response rating, Rice” value [10, 29] was 20, the “Nutsedge, Yellow plant response rating” value [11, 18] was 60 and the “Nutsedge, Yellow plant response rating” value [11, 19] was 90. For the same compound, the “Plant response rating, Nutsedge, Yellow” value [11, 20] was 0, the “Nutsedge, Yellow plant response rating” value [11, 21] was 100 and the “Wheat plant response rating” value [12, 22] was 40. The “Wheat plant response rating” value [12, 23] was 50, the “Wheat plant response rating” value [12, 24] was 30 and the “Plant response rating, Wheat” value [12, 25] was 50. The “Morningglory plant response rating” value [13, 18] was 0, the “Morningglory plant response rating” value [13, 19] was 80 and the “Plant response rating, Morningglory” value [13, 20] was 0. For the same compound, the “Morningglory plant response rating” value [13, 21] was 85, the “Cupgrass, Woolly plant response rating” value [14, 18] was 80 and the “Cupgrass, Woolly plant response rating” value [14, 19] was 85. For the same compound, the “Plant response rating, Cupgrass, Woolly” value [14, 20] was 0, the “Cupgrass, Woolly plant response rating” value [14, 21] was 100 and the “Oat, Wild plant response rating” value [15, 18] was 45. The “Oat, Wild plant response rating” value [15, 19] was 80, the “Plant response rating, Oat, Wild” value [15, 20] was 10 and the “Oat, Wild plant response rating” value [15, 21] was 90. The “Plant response rating, Ducksalad” value [16, 26] was 60, the “Plant response rating, Ducksalad” value [16, 27] was 60 and the “Plant response rating, Ducksalad” value [16, 28] was 85. For the same compound, the “Plant response rating, Ducksalad” value [16, 29] was 95, the “Velvetleaf plant response rating” value [17, 22] was 50 and the “Velvetleaf plant response rating” value [17, 23] was 60. For the same compound, the “Velvetleaf plant response rating” value [17, 24] was 30 and the “Plant response rating, Velvetleaf” value [17, 25] was 90.
